Results on 4 compounds are retold here after PMC4858680, “A platinum-based hybrid drug design approach to circumvent acquired resistance to molecular targeted tyrosine kinase inhibitors” (Scientific Reports, 2016).

The subject of data set [1] is HEK293 Mock transfected. Kind of data set: Anticancer activity in mock transfected HEK293. Format: cell-based. The conditions noted are these: Bcr-Abl negative.
Data set [2] deals with K562 Ima1.0. The experiment in a line: Anticancer activity in imatinib-selected resistant K562 subline. Format: cell-based. The following applies: read-out: Anticancer activity (IC50) K562 Imatinib selected (K562 Ima1.0); Bcr-Abl amplification.
The target in data set [3] is ABL1(F317L)-nonphosphorylated (Homo sapiens, UniProt P00519, F317L). The conditions noted are these: 10 μM.
The target in data set [4] is ABL1(M351T)-phosphorylated (Homo sapiens, UniProt P00519, M351T). The following applies: 10 μM.
Data set [5] deals with ABL1(Q252H)-phosphorylated (Homo sapiens, UniProt P00519, Q252H). The conditions noted are these: 10 μM.
Data set [6] concerns the target T1, ABL1(T315I)-nonphosphorylated (Homo sapiens, UniProt P00519, T315I). The following applies: 10 μM.
For data set [7], the target named is ABL1-nonphosphorylated (Homo sapiens, UniProt P00519). The conditions noted are these: 10 μM.
The target in data set [8] is P-gp (Homo sapiens, UniProt P08183). Kind of data set: in vitro. The conditions noted are these: dog, MDCK-MDR1, pH 7.4.
Chain of P-gp (P08183 whole entry): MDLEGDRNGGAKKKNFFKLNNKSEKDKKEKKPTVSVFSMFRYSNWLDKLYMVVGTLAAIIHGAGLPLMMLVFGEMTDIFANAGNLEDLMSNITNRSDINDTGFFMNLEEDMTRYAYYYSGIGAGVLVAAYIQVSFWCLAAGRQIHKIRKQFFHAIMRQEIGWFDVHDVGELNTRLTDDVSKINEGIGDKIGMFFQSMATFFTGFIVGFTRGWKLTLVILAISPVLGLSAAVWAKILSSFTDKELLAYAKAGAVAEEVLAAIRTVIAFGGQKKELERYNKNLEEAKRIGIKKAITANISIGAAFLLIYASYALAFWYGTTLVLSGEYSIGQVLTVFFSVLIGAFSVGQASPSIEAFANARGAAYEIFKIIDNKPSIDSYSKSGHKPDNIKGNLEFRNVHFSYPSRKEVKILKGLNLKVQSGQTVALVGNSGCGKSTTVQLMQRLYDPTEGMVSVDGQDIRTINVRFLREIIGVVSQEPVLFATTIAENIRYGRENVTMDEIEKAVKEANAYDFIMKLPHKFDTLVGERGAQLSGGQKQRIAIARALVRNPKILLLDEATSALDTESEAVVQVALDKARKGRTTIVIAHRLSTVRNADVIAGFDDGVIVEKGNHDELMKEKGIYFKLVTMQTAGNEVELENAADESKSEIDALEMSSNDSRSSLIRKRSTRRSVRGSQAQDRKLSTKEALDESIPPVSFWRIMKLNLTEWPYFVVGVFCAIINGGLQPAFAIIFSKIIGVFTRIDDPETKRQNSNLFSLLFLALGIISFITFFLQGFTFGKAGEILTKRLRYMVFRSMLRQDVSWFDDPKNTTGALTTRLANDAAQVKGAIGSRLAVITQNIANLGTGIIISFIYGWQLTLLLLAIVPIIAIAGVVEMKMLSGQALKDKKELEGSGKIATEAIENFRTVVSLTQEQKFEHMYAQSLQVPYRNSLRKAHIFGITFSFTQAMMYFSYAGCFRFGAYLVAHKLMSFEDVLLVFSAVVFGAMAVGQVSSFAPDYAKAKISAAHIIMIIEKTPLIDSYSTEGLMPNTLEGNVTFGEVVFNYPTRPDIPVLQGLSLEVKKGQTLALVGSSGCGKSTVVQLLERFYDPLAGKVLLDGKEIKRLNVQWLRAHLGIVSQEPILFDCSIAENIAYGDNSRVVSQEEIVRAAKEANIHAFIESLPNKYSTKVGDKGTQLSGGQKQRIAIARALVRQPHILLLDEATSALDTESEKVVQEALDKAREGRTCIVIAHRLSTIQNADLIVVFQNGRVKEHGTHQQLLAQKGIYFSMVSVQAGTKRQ
Data set [9] has as its target ABL1(F317I)-phosphorylated (Homo sapiens, UniProt P00519, F317I). Kind of data set: biochemical. The following applies: read-out: Percent control.
Data set [10] deals with ABL1(H396P)-nonphosphorylated (Homo sapiens, UniProt P00519, H396P). The experiment in a line: biochemical. The following applies: read-out: Percent control.
For data set [11], the target named is ABL1(Q252H)-nonphosphorylated (Homo sapiens, UniProt P00519, Q252H). The experiment in a line: biochemical. The following applies: read-out: Percent control.
Data set [12] deals with T1, ABL1(T315I)-nonphosphorylated. The experiment in a line: biochemical. The following applies: read-out: Percent control.
Data set [13] has as its target ABL1-phosphorylated (Homo sapiens, UniProt P00519). Kind of data set: biochemical. The following applies: read-out: Percent control.
For data set [14], the target named is T2, EPHB1 (Homo sapiens, UniProt P54762).
T2 sequence (P54762 18-984): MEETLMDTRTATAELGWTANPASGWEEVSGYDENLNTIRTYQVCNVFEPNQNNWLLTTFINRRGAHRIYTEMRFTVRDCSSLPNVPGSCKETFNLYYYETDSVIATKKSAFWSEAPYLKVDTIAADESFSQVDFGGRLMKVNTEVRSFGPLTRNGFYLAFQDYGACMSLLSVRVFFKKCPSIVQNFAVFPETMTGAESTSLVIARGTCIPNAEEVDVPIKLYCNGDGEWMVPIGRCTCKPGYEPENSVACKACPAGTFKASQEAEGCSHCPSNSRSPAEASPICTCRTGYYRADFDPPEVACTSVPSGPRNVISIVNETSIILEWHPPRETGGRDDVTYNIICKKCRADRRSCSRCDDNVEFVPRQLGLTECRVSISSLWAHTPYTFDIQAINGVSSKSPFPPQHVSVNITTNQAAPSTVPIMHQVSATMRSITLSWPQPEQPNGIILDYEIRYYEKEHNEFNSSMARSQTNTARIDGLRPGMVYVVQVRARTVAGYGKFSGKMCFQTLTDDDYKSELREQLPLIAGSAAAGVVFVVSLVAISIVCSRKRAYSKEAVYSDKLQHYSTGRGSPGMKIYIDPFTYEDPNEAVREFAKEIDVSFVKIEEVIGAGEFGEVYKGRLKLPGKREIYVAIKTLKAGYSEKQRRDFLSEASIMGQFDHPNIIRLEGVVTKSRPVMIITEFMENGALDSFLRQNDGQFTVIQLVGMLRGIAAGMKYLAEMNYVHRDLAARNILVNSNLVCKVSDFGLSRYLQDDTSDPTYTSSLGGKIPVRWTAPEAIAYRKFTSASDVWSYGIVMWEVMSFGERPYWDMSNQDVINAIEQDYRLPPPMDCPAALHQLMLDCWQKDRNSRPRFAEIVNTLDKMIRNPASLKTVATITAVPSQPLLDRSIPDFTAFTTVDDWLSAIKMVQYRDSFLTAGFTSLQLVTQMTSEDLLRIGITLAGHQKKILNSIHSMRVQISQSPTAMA
Kind of data set: biochemical. The conditions noted are these: read-out: Percent control.

Data set [15] has as its target FRK (Homo sapiens, UniProt P42685). Kind of data set: biochemical. The conditions noted are these: read-out: Percent control.
Data set [16] has as its target TIE2 (Homo sapiens, UniProt Q02763). Kind of data set: biochemical. The conditions noted are these: read-out: Percent control.
In data set [17] the target is T3, ZAP70 (Homo sapiens, UniProt P43403).
T3 sequence (P43403 1-619): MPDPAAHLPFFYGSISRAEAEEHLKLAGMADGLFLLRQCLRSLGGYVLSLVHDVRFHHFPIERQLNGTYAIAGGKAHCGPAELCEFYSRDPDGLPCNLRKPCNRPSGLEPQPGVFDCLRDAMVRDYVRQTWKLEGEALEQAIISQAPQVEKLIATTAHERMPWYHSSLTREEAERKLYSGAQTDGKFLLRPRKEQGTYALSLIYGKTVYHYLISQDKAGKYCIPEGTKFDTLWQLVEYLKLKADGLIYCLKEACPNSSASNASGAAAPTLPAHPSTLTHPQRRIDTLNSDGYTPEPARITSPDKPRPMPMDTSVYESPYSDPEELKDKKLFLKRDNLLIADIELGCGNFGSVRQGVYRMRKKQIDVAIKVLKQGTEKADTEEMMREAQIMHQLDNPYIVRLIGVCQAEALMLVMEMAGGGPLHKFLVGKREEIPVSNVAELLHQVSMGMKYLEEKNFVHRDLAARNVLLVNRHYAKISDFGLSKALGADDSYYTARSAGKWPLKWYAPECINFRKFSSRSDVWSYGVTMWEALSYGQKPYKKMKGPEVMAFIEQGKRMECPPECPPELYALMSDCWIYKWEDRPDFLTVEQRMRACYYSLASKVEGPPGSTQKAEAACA
Kind of data set: biochemical. The conditions noted are these: read-out: Percent control.

Chain of FRK (P42685 whole entry): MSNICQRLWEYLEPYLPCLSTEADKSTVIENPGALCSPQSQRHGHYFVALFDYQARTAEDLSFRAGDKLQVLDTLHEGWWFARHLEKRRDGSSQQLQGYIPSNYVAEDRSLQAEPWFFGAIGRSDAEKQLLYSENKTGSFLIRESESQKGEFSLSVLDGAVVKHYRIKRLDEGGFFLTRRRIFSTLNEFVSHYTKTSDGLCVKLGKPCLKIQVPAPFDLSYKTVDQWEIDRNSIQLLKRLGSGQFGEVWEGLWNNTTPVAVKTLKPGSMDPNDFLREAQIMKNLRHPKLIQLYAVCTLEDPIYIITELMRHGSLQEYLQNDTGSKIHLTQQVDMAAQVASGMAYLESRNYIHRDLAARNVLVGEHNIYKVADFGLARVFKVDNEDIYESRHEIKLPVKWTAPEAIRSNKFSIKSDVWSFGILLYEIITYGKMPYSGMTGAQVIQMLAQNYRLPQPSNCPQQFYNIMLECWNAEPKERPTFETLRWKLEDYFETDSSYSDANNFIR
Chain of TIE2 (Q02763 23-1124): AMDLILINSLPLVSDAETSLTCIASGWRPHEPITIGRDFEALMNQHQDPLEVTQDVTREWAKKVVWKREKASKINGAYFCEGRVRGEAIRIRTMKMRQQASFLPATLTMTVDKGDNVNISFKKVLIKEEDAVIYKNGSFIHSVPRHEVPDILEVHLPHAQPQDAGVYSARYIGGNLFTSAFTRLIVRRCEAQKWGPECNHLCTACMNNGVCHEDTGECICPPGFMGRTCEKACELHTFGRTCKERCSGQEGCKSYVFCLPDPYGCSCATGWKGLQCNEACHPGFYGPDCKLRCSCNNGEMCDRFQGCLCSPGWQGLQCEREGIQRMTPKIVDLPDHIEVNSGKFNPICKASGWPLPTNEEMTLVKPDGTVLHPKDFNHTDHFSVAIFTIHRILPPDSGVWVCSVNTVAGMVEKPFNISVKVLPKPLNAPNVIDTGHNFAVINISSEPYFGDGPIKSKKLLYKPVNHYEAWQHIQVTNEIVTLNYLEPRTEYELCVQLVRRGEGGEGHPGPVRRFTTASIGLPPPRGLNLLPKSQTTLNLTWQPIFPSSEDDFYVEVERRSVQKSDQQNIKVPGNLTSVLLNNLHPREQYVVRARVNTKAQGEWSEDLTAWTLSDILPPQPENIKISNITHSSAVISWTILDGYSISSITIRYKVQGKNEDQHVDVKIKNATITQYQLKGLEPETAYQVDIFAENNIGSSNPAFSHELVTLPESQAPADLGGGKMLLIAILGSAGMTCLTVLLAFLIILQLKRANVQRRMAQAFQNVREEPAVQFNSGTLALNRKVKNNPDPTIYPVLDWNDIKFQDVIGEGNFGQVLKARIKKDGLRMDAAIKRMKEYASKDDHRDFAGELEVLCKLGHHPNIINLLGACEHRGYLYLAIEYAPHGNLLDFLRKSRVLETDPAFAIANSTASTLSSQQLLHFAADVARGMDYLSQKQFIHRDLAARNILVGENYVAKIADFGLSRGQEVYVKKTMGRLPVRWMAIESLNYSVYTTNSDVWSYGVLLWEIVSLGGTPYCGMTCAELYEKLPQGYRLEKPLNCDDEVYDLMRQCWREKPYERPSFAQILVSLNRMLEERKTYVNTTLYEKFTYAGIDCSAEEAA

Regarding `Cc1ccc(NC(=O)c2ccc(CN3CCN(C)CC3)cc2)cc1Nc1nccc(-c2cccnc2)[n+]1[Pt-2]1([Cl])[NH2+]C2CCCCC2[NH2+]1` (stereo not shown) [1b, oxaliplatin-imatinib], the concentration for half-maximal inhibition (IC50) was 10.6 ± 1.58 µM in [1] and 2.92 ± 0.93 µM in [2].
For the compound `C#Cc1cccc(Nc2c3cc(OCCOC)c(OCCOC)cc3nc[n+]2[Pt@SP2-2]([NH3+])([NH3+])[Cl])c1` [2a, cisplatin-erlotinib], the Percent control in [3] came to 61%; in data set [4] it was 15%; in [5] it was 12%; in data set [6], 41%; in [7], 25%.
`C#Cc1cccc(Nc2ncnc3cc(OCCOC)c(OCCOC)cc23)c1` [Erlotinib] gave a Papp A→B at 120 min, 10 μM in [8] of 18.4 ×10⁻⁶ cm/s. In addition, in data set [8], the apparent permeability from basolateral to apical (Papp B→A) at 120 min, 10 μM worked out at 74.2 ×10⁻⁶ cm/s. Further, the remaining activity at 10 µM is 9.9% in data set [9]; 0.9% in data set [10]; 2.2% in data set [11]; 5.8% in data set [12]; 0.8% in data set [13]; 9.9% in data set [14].
For the compound `COc1cc2c(Nc3ccc(Br)cc3F)ncnc2cc1OCC1CCN(C)CC1` [Vandetanib, reference compound], the remaining activity at 10 µM in data set [14] is 2.8%; in [15], 1.7%; in data set [16], 9.1%; in [17] it was 100%.

As usually defined, the IC50 is the midpoint of a concentration-inhibition curve. The Papp A→B is the apparent permeability from the apical to the basolateral side of a cell layer. Read a low Papp A→B as slow passage. What is called Papp B→A is the apparent permeability from the basolateral to the apical side of a cell layer.
